In US20140017701A1, “CHIMERIC PDK1 KINASES” (priority 2011, published 2014):

Experiments:
Format in all cases: biochemical
PRK2 = biological target: T1, PRK2 (Homo sapiens, UniProt Q16513); experiment: Protein kinase activity assay, PRK2; conditions: Table I a; percentage of catalytic activity compared to DMSO; Crosstide substrate
T1 construct: made in house; host or cells: HEK293
Method: (§1) For the expression and purification of protein kinases fused to GST, pEBG-2T derived plasmids were transfected into 8×14.5 cm dishes containing HEK293 cells using the PEI method ([…] and […]/14.5 cm dish). The cells were lysed after 48 h in a buffer containing 50 mM Tris-HCl pH 7.5, 1 mM EGTA, 1 mM EDTA, 1% (w/v) Triton X-100, 1 mM sodium orthovanadate, […], 5 mM sodium pyrophosphate, 0.27 M sucrose, 0.1% β-mercaptoethanol, and 1 tablet of protease inhibitor cocktail per 50 ml of buffer. Lysates were frozen in liquid nitrogen and kept at −80° C. until required. Purification involved incubation of the cleared lysate with glutathione sepharose, followed by 2 washes with 0.5 M NaCl in lysis buffer, 8 washes with a buffer containing 50 mM Tris-HCl, 0.1 mM EGTA and 0.1% β-mercaptoethanol (buffer A), and a last wash with buffer A supplemented with 0.26 M sucrose. […]
(§2) The protein kinase activity assays were performed essentially as previously described (Engel, M. et al. Embo J 25, 5469-80 (2006)). The assays were done in a 96-well format and 4 μl aliquots spotted on P81 phospho-cellulose papers (Whatman) using epMotion 5070 (Eppendorf), washed in 0.01% phosphoric acid, dried, and then exposed and analyzed using PhosphoImager technology (FLA-9000 Starion, Fujifilm). […]

PKCι = biological target: T2, PKCι (Homo sapiens, UniProt P41743); experiment: Protein kinase activity assay, PKCι; conditions: for Effect on PKCι activity: 50 μM; for Activity (%) Atypical PKCs PKCι: Table I b, percentage of catalytic activity compared to DMSO
T2 construct: made in house; host or cells: HEK293
T2 sequence (P41743 10-596 limits assumed): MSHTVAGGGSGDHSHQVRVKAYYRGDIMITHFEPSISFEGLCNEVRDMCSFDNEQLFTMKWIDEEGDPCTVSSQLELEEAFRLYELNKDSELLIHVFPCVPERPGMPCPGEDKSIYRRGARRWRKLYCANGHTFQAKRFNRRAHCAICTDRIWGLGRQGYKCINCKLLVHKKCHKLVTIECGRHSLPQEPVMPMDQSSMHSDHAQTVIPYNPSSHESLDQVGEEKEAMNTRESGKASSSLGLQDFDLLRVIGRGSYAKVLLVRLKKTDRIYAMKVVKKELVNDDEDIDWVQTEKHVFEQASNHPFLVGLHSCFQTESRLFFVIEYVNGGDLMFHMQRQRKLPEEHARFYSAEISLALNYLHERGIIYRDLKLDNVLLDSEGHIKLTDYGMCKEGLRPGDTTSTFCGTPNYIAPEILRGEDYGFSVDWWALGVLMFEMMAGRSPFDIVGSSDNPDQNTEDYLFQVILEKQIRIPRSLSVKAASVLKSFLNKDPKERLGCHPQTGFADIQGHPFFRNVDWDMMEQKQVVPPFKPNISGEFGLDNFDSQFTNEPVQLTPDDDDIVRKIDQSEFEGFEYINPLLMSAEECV
Method: For the expression and purification of protein kinases fused to GST, pEBG-2T derived plasmids were transfected into 8×14.5 cm dishes containing HEK293 cells using the PEI method ([…] and […]/14.5 cm dish). The cells were lysed after 48 h in a buffer containing 50 mM Tris-HCl pH 7.5, 1 mM EGTA, 1 mM EDTA, 1% (w/v) Triton X-100, 1 mM sodium orthovanadate, […], 5 mM sodium pyrophosphate, 0.27 M sucrose, 0.1% β-mercaptoethanol, and 1 tablet of protease inhibitor cocktail per 50 ml of buffer. Lysates were frozen in liquid nitrogen and kept at −80° C. until required. Purification involved incubation of the cleared lysate with glutathione sepharose, followed by 2 washes with 0.5 M NaCl in lysis buffer, 8 washes with a buffer containing 50 mM Tris-HCl, 0.1 mM EGTA and 0.1% β-mercaptoethanol (buffer A), and a last wash with buffer A supplemented with 0.26 M sucrose. Elution was performed with this last buffer containing 20 mM glutathione and the GST-fusion protein was cleared from resin by filtration through a “SigmaPrep” spin column (Sigma). GST-fusion proteins were aliquoted, snap frozen in liquid nitrogen and kept at −80° C. until use. Purity at this stage was above 85% as estimated by SDS-PAGE and staining with Coomassie Brilliant Blue R250. PRK2 was expressed from pEBG-2T-PRK2 (Balendran, A. et al. J Biol Chem 275, 20806-13. (2000)), SGK1 from pEBG-2T-SGK1-ΔN[Ser422Asp], PKBα from pEBG-2T-PKBα[Ser473Asp] (Biondi et al., D. R. Embo J 20, 4380-90. (2001)), PKCl from pEBG-2T-PKCl and PKCζ from pEBG-2T-PKCζ. PDK1 and S6K1 were expressed in Sf9 insect cells using a baculovirus expression system from pFastBac-PDK1 and pFastBac-56K1-T2[Thr412Glu].
The protein kinase activity assays were performed essentially as previously described (Engel, M. et al. Embo J 25, 5469-80 (2006)). The assays were done in a 96-well format and 4 μl aliquots spotted on P81 phospho-cellulose papers (Whatman) using epMotion 5070 (Eppendorf), washed in 0.01% phosphoric acid, dried, and then exposed and analyzed using PhosphoImager technology (FLA-9000 Starion, Fujifilm). Atypical PKC (aPKC) activity assays were performed in a total volume of 20 μl containing 50 mM Tris-HCl pH 7.5, 0.05 mg/ml BSA, 0.1% (v/v) 2-mercaptoethanol, 10 mM MgCl2, 100 μM [γ^32P]ATP (5-50 cpm/pmol), 0.003% Brij, 30-50 ng of aPKC, and MBP (10 μM) or PSRtide (100 μM) as the substrate. After 15 min pre-incubation, the kinase reaction was started by addition of 6 μl of an ATP-Mg mix. When required, lipid activator (LA) phosphatidylserine (100 ng) or PKC lipid activator mix (1×) was included in the pre-incubation. Low basal activity and consistent activation of 1-592 PKCζ and 498 PKCζ by LA was obtained when the pre-incubation time was started by addition of the whole mix on the enzyme. […]

PKCα = biological target: T3, PKCα (Homo sapiens, UniProt P17252); experiment: Protein kinase activity assay, PKCα; conditions: Table I b; percentage of catalytic activity compared to DMSO; lipid activator mix, histone H1
T3 construct: purchased Millipore
Method: The protein kinase activity assays were performed essentially as previously described (Engel, M. et al. Embo J 25, 5469-80 (2006)). The assays were done in a 96-well format and 4 μl aliquots spotted on P81 phospho-cellulose papers (Whatman) using epMotion 5070 (Eppendorf), washed in 0.01% phosphoric acid, dried, and then exposed and analyzed using PhosphoImager technology (FLA-9000 Starion, Fujifilm). Atypical PKC (aPKC) activity assays were performed in a total volume of 20 μl containing 50 mM Tris-HCl pH 7.5, 0.05 mg/ml BSA, 0.1% (v/v) 2-mercaptoethanol, 10 mM MgCl2, 100 μM [γ^32P]ATP (5-50 cpm/pmol), 0.003% Brij, 30-50 ng of aPKC, and MBP (10 μM) or PSRtide (100 μM) as the substrate. After 15 min pre-incubation, the kinase reaction was started by addition of 6 μl of an ATP-Mg mix. When required, lipid activator (LA) phosphatidylserine (100 ng) or PKC lipid activator mix (1×) was included in the pre-incubation. Low basal activity and consistent activation of 1-592 PKCζ and 498 PKCζ by LA was obtained when the pre-incubation time was started by addition of the whole mix on the enzyme.
The substrates were T308tide (200 μM) for PDK1, Kemptide (100 μM) for PKA, and Crosstide (100 μM) for SGK, PKB, S6K, and PRK2. The activity assays for PKCα, β, θ, and δ were performed in the presence of PKC lipid activator mix (1×) using 3 μM of histone H1 as substrate. […]

SGK = biological target: T4, SGK (Homo sapiens, UniProt O00141, S422D); experiment: Protein kinase activity assay, SGK; conditions: Table I a; percentage of catalytic activity compared to DMSO; Crosstide substrate
T4 construct: made in house; host or cells: HEK293
T4 sequence (O00141 61-431 S422D limits assumed): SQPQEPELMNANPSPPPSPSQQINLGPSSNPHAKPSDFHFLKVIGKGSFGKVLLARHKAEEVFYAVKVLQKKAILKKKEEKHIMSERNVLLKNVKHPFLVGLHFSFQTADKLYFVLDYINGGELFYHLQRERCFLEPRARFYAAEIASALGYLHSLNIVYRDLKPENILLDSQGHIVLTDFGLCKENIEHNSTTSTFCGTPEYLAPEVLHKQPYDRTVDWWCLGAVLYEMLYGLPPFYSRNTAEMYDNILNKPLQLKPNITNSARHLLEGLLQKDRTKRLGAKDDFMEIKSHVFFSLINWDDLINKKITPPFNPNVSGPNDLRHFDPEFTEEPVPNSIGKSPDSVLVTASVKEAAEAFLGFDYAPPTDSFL
Method: as §1, §2

T1 sequence (Q16513 whole entry): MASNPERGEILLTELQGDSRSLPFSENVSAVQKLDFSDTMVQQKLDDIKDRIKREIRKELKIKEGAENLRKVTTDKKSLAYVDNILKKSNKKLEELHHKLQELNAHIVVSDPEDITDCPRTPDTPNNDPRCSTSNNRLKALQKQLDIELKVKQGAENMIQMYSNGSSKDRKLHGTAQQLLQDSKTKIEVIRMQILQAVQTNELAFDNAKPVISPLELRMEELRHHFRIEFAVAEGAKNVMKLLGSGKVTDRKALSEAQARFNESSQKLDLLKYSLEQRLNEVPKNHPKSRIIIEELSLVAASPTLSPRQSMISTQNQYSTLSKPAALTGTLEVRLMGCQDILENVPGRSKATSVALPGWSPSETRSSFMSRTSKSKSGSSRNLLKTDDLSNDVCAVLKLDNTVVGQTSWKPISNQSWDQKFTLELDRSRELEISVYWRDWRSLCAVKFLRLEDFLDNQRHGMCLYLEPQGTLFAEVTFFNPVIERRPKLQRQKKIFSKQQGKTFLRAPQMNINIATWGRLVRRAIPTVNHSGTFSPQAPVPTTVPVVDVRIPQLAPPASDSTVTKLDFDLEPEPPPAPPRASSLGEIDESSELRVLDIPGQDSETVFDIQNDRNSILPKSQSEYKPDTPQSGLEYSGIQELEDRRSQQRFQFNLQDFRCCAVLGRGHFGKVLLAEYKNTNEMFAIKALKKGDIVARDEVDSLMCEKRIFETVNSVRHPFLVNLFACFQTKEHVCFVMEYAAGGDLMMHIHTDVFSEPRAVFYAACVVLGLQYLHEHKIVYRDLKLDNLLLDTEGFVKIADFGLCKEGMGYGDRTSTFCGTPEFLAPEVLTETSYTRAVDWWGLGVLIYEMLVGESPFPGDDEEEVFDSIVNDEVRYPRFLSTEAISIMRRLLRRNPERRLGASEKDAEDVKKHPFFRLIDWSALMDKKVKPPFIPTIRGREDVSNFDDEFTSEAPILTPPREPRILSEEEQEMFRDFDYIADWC

Row | Activity (%) PRK2 (PRK2) [%] | Effect on PKCι activity (PKCι) | Activity (%) Atypical PKCs PKCι (PKCι) [%] | Activity (%) Classical PKCs PKCα (PKCα) [%] | Activity (%) SGK (SGK) [%] | Structure (SMILES)
1 | 103 | not | 108 | 154 | 93 | Cl.O=C(O)CC(Cc1nc2cc(-c3ccccc3)ccc2[nH]1)c1ccc(Cl)cc1 (stereo not shown) [PS168]
2 | 97 | not | 106 | 145 | 97 | Cl.O=C(O)CC(Cc1nc2c(Cl)cc(Cl)cc2[nH]1)c1ccc(Cl)cc1 (stereo not shown) [PS171]
